From patent US6133233A, “Peptide modulation of reperfusion injury” (Kansas State University Research Foundation, priority 1998, dated 2000)

How the values were obtained:
[1] = test system: leukocyte adherence and extravasation; conditions: cited from earlier work
[2] = test system: neutrophil oxidase activity; assay: Superoxide anion production in whole neutrophils (SOD-inhibitable ferricytochrome c reduction, PMA); format: cell-based; conditions: concentrations 5-10 μM
Procedure: (§1) In these experiments, superoxide anion production by neutrophils was determined by the superoxide dismutase-inhibitable reduction of ferricytochrome c.
(§2) Four samples were prepared for each animal: (1) neutrophils (1×10^6 cells) in Hanks' balanced salt solution (HBSS; without phenol red) mixed with 100 μl (80 μM) of ferricytochrome c, 10 μl (0.1 μg) phorbol myristate acetate (PMA), and 100 μl (300 U) of superoxide dismutase (SOD); (2) cells treated with ferricytochrome c only; (3) cells treated with ferricytochrome c and PMA; and (4) cells treated with ferricytochrome c and SOD. The mixtures were incubated at 39° C. for 20 min. and then centrifuged at 4° C. (350×g) for 5 min. Cell-free supernatant (200 μl) was transferred to flat-bottom 96-well plates, and OD was read at 550 nm using HBSS as the blank. Production of superoxide anion was calculated using the following formula: OD of [(3+4)-(1+2)]×190.5=nm superoxide/1 ×10^6 cells/20 min.

intact human neutrophils = assay: Superoxide anion generation in intact human neutrophils; format: cell-based
Procedure: as §1, §2

reactive oxygen species = assay: Reactive oxygen (oxidant) production after mesenteric ischemia-reperfusion, dihydrorhodamine 123 intravital fluorescence; format: in vivo, rat; conditions: rats
Procedure: (§3) In this example, the efficiency of PR-39 (SEQ ID NO: 1) was tested in an in vivo model of reperfusion. Measurements of reactive oxygen release, neutrophil adherence to postcapillary venules and neutrophil emigration through venular endothelium, and vascular leakage were made in the presence and absence of PR-39 (SEQ ID No. 1).
(§4) In this example, male Sprague-Dawley rats weighing 220-250 g each were used. The rats were anesthetized by intraperitoneal injection of pentobarbital (30-40 mg/kg rat body weight) and the jugular vein of each rat was cannulated for reagent injection. The carotid artery of each rat was also cannulated for measurements of mean arterial blood pressure using a pressure transducer (Model P23a, Statham) and physiological recorder (Grass Instruments). […] The images were captured with a charge-coupled device camera (Model C2400-60, Hamamatsu Photonics) which was mounted on the microscope, projected onto a television monitor (Model PVM-2030, Sony) and recorded using a videocassette recorder (Model HS-U65, Mitsubishi). […]
(§5) Single, unbranched venules with diameters between 25-35 μm and lengths longer than 150 μm (both measured with a video caliper, Microcirculation Research Institute, Texas A&M University) were selected for the studies. […]
In more detail, generation of reactive oxygen levels were measured by the dihydrorhodamine 123 dye. […]

[3] = test system: leukocyte adherence to mesenteric venular endothelium; assay: Leukocyte adherence to mesenteric venular endothelium after ischemia-reperfusion; format: in vivo, rat; conditions: rats, pretreatment with about 5 μM
Procedure: as §3
as §4, with “injection.” for “injection. The carotid artery of each rat was also cannulated for measurements of mean arterial blood pressure using a pressure transducer (Model P23a, Statham) and physiological recorder (Grass Instruments).”
as §5
(§6) The number of adherent and transmigrating leukocytes was determined off-line using videotaped images. […] Adherent leukocytes were expressed as the number per 100 μm length of venule. The number of emigrating leukocytes were also determined off-line and were expressed as the number per microscopic field.

[4] = test system: leukocyte emigration through venular endothelium; assay: Leukocyte emigration through venular endothelium after ischemia-reperfusion; format: in vivo, rat; conditions: rats, pretreatment with about 5 μM
Procedure: as §3
as §4, with “injection.” for “injection. The carotid artery of each rat was also cannulated for measurements of mean arterial blood pressure using a pressure transducer (Model P23a, Statham) and physiological recorder (Grass Instruments).”
as §5, §6

venular protein leakage = assay: Albumin leakage through mesenteric venules (vascular integrity) after ischemia-reperfusion; format: in vivo, rat; conditions: rats, PR-39 pretreatment
Procedure: An assessment of vascular integrity was made by quantification of albumin leakage through mesenteric venules. Three groups of Sprague-Dawley rats (6 rats/group and respectively labeled control, I/R and I/R+PR-39) were obtained. […] The control group was subjected to a similar surgical preparation, but without occlusion of the mesenteric artery or PR-39 (SEQ ID No. 1) administration. Fifty mg/kg fluorescein isothiocyanate-labeled bovine albumin was administered IV to each of the rats of each group, 15 min. prior to release of occlusion of the rats of the I/R and I/R+PR-39 (SEQ ID No. 1) groups. Fluorescence intensities within three segments of the venule under study (Iv) and in three adjacent areas of interstitium (Ii) were detected using a SIT camera (Model C-2400-08; Hamamatsu Photonics). Measurements were made at the basal, 20-30 min., and 50-60 min. time points using a computer-assisted digital imaging processor (NIH Image 1.35 on a Macintosh computer). An index of albumin leakage was expressed as the ratio of Ii to Iv at each time.

[5] = test system: bovine pulmonary artery endothelial (BPAE) cells; assay: Superoxide production in high K+ treated BPAE cells (dichlorodihydrofluorescein); format: cell-based; conditions: 10 μM, 30 min
Procedure: PR-39 (SEQ ID No. 1) was also tested in a cell other than neutrophils, namely bovine pulmonary artery endothelial (BPAE) cells. In these cells, membrane depolarization induced by high K^+ treatment results in the production of superoxide anion by an endothelial NADPH oxidase enzyme that may be similar to the oxidase found in neutrophils. In these experiments, cultured BPAE cells were loaded with an oxidation-sensitive dye, dichlorodihydrofluorescein, then treated with high K^+, plus or minus PR-39 (SEQ ID No. 1) or PR-26 (SEQ ID No. 2), for 30 min. Cells were then scraped, pelleted, washed, and sonicated. Fluorescence of the supernatant was then measured to assess superoxide production.

neutrophil chemotaxis = assay: Neutrophil microchemotaxis assay; format: cell-based; conditions: rat neutrophils; PR-39 10 μM
Description: A microchemotaxis assay was used to examine the effect of PR-39 (SEQ ID No. 1) and another basic, PXXP-containing antimicrobial peptide, Bac5 (SEQ ID No. 7), on neutrophil chemotaxis alone and in combination. Whole blood was obtained from 250-350 g Sprague-Dawley rats by terminal cardiac puncture into acid citrate dextrose solution. Neutrophils were isolated by dextran sedimentation, followed by density-gradient centrifugation and hypotonic lysis to remove contaminating erythrocytes. Micropore filters (5 μM-pore polycarbonate membrane) were used to separate the lower and upper chambers of the microchemotaxis chamber. Attractants to be tested were diluted in RPMI medium and added (35 μl) to the lower wells of the chamber; 50 μl of the cell suspension ([…]) was added to the upper chamber. Chambers were placed in a humidified atmosphere of 5% CO2 in air at 37° C. for 40 min. Cells on the underside of the filters were fixed, stained, and counted using high-power brightfield microscopy. For each sample, four test wells containing chemoattractant were used. The total number of neutrophils in five fields was counted for each well. All results are expressed as a chemotaxis index defined as […].

[6] = 2 μM adenosine, cat mesenteric model

## Nc1ncnc2c1ncn2[C@@H]1O[C@H](CO)[C@@H](O)[C@H]1O [adenosine]
[1]; [6]
  Reduction of reperfusion injury-induced adhesion of neutrophils: 65%
  Reduction of reperfusion injury-induced extravasation of neutrophils: 32%
[1]; adenosine treatment, literature
  Reduction of oxidant release: 20%

## Bac5: basic, PXXP-containing antimicrobial peptide (RFRPPIRRPPIRPPFYPPFRPPIRPPIFPPIRPPFRPPLGPFP)
[2]
  Inhibition of neutrophil oxidase activity (superoxide anion generation in intact neutrophils): inhibition of superoxide anion generation

## Bac7: cationic, proline-rich, PXXP-containing peptide (RRIRPRPPRLPRPRPRPLYC)
[2]
  Inhibition of neutrophil oxidase activity (superoxide anion generation in intact neutrophils): inhibition of superoxide anion generation

## C7: non-naturally occurring, cationic, PXXP-containing peptide (RRGPRHPQTRLPRPLPDP)
Intact human neutrophils
  Inhibition of superoxide anion generation in intact human neutrophils: inhibition of superoxide anion generation

## PR-39: proline/arginine-rich peptide of 39 residues (29/39 proline and arginine), most preferred peptide (RRRPRPPYLPRPRPPPFFPPRLPPRIPPGFPPRFPPRFP)
Reactive oxygen species; PR-39 pretreatment, comparison with adenosine
  Oxidant release (reactive oxygen production): complete prevention of oxidant release
Reactive oxygen species; about 5 μM PR-39 pre-ischemia, 20 min ischemia, 30 minutes after resumption of mesenteric venular circulation
  Oxidant production: significantly inhibited
[3]
  Neutrophil adhesion to venular endothelium: no apparent endothelium neutrophil interaction in excess of basal levels
[4]; basal
  Basal neutrophil emigration: appeared to be diminished
[4]; both post-release time points
  Transvascular neutrophil emigration: no migrating neutrophils observed
Venular protein leakage
  Vascular integrity (albumin leakage index Ii/Iv): prevented loss of vascular integrity
[2]
  Inhibition of neutrophil oxidase activity (superoxide anion generation in intact neutrophils): inhibition of superoxide anion generation
[5]
  Oxidase activity (superoxide production) in pulmonary endothelium: decrease oxidase activity
Neutrophil chemotaxis
  Neutrophil chemotaxis, examined alone: chemotactic for neutrophils

## platelet activating factor [PAF, reference compound]
Neutrophil chemotaxis
  Neutrophil chemotaxis, examined alone: chemotactic for neutrophils
